Experimental findings from patent publication US20250353853A1, “FLAVIVIRUS INHIBITORS” (IRBM S.P.A., priority 2022, published 2025) are described below.

The target of test [1] is West Nile Virus (WNV) NS2B-NS3 protease (West Nile virus (WNV), UniProt P06935). Nature of the test: WNV Protease Inhibition Assay. It counts as biochemical. An excerpt:
WNV Protease Inhibition Assay

The test system of test [2] is ZIKV replicon in Vero cells. Kind of test: ZIKV Replication Inhibition Assay (replicon, NanoLuc). The conditions noted are these: Zika virus, Vero, 72 h, read-out: Zika Replicon EC50. (In general: In antiviral work, replicon cells carry a viral genome segment that copies itself.)
The mark [3] stands for this setting: 2 nM protease, 10 μM pERTKR-AMC substrate, read-out: WNV Protease IC50.

Read-outs that look alike come from different tables or passages of the source.

West Nile Virus (WNV) NS2B-NS3 protease, sequence (P06935 1502-1679 limits assumed): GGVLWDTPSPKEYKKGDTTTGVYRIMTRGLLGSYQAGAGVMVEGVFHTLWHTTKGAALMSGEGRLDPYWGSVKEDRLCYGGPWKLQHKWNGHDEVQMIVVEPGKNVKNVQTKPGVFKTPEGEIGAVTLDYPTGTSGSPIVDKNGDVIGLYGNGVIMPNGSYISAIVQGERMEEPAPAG
West Nile Virus (WNV) NS2B-NS3 protease, sequence (P06935 1371-1501 partner limits assumed): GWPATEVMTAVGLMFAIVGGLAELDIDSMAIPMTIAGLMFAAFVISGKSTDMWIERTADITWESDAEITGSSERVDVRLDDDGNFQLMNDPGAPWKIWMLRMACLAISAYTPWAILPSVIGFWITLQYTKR

Turning to `Cc1ncccc1-c1ccc(C[n+]2cc([N-]C(=O)Nc3cncc(C(F)(F)F)c3)on2)nc1` [Example 141, (3-((2′-methyl-[3,3′-bipyridin]-6-yl)methyl)-1,2,3-oxadiazol-3-ium-5-yl)((5-(trifluoromethyl)pyridin-3-yl)carbamoyl)amide], the 50% inhibitory concentration (IC50) in test [1] (setting [3]) is less than 100 nM. In addition, the EC50 in test [2] was in the range of 100 to 1000 nM.
In turn, `Cc1noc(C)c1-c1ccc(C[n+]2cc([N-]C(=O)Nc3cccc(C4CC4)c3)on2)nc1` [Example 142, ((3-cyclopropylphenyl)carbamoyl)(3-((5-(3,5-dimethylisoxazol-4-yl)pyridin-2-yl)methyl)-1,2,3-oxadiazol-3-ium-5-yl)amide] came in with an IC50 in test [1] of 100 to 1000 nM. For the same compound, the EC50 in test [2] is 100 to 1000 nM.
With `Cc1nn(C)c(C)c1-c1ccc(C[n+]2cc([N-]C(=O)Nc3cccc(C(F)(F)F)c3)on2)nc1` [Example 143, ((3-(trifluoromethyl)phenyl)carbamoyl)(3-((5-(1,3,5-trimethyl-1H-pyrazol-4-yl)pyridin-2-yl)methyl)-1,2,3-oxadiazol-3-ium-5-yl)amide], in test [1] (setting [3]), the IC50 is less than 100 nM. Also, in test [2], the concentration for a half-maximal effect (EC50) lay within 100 to 1000 nM.
On the same counts, the results for `N#Cc1ncncc1-c1ccc(C[n+]2cc([N-]C(=O)Nc3cncc(C(F)(F)F)c3)on2)nc1` [Example 144, (3-((5-(4-cyanopyrimidin-5-yl)pyridin-2-yl)methyl)-1,2,3-oxadiazol-3-ium-5-yl)((5-(trifluoromethyl)pyridin-3-yl)carbamoyl)amide] are less than 100 nM and 1000 to 20000 nM.
Compound `O=C([N-]c1c[n+](Cc2ccc(-c3ccnnc3)cn2)no1)Nc1cncc(C(F)(F)F)c1` [Example 145, (3-((5-(pyridazin-4-yl)pyridin-2-yl)methyl)-1,2,3-oxadiazol-3-ium-5-yl)((5-(trifluoromethyl)pyridin-3-yl)carbamoyl)amide] came in with an IC50 in test [1] of 100 to 1000 nM. Also, the EC50 in test [2] is 1000 to 20000 nM.
The corresponding values for `Cc1noc(C)c1-c1ccc(C[n+]2cc([N-]C(=O)Nc3cncc(C4CC4)c3)on2)nc1` [Example 146, ((5-cyclopropylpyridin-3-yl)carbamoyl)(3-((5-(3,5-dimethylisoxazol-4-yl)pyridin-2-yl)methyl)-1,2,3-oxadiazol-3-ium-5-yl)amide] are 100 to 1000 nM and 100 to 1000 nM.
Turning to `Cc1nn(C)c(C)c1-c1ccc(C[n+]2cc([N-]C(=O)Nc3cncc(C(F)(F)F)c3)on2)nc1` [Example 147, ((5-(trifluoromethyl)pyridin-3-yl)carbamoyl)(3-((5-(1,3,5-trimethyl-1H-pyrazol-4-yl)pyridin-2-yl)methyl)-1,2,3-oxadiazol-3-ium-5-yl)amide], the IC50 in test [1] (setting [3]) was less than 100 nM. In addition, the concentration for a half-maximal effect (EC50) in test [2] fell in the range of 100 to 1000 nM.
On the same counts, the results for `N#Cc1ncncc1-c1ccc(C[n+]2cc([N-]C(=O)Nc3cccc(C(F)(F)F)c3)on2)nc1` [Example 148, (3-((5-(4-cyanopyrimidin-5-yl)pyridin-2-yl)methyl)-1,2,3-oxadiazol-3-ium-5-yl)((3-(trifluoromethyl)phenyl)carbamoyl)amide] are less than 100 nM and 100 to 1000 nM.
In test [1], `Cc1ccncc1-c1ccc(C[n+]2cc([N-]C(=O)Nc3cncc(C(F)(F)F)c3)on2)nc1` [Example 149, (3-((4′-methyl-[3,3′-bipyridin]-6-yl)methyl)-1,2,3-oxadiazol-3-ium-5-yl)((5-(trifluoromethyl)pyridin-3-yl)carbamoyl)amide] yielded a 50% inhibitory concentration (IC50) of 100 to 1000 nM. Moreover, the EC50 in test [2] lay in the range of 100 to 1000 nM.
`Cc1noc(C)c1-c1ccc(C[n+]2cc([N-]C(=O)Nc3ccc(F)c(C(F)(F)F)c3)on2)nc1` [Example 150, (3-((5-(3,5-dimethylisoxazol-4-yl)pyridin-2-yl)methyl)-1,2,3-oxadiazol-3-ium-5-yl)((4-fluoro-3-(trifluoromethyl)phenyl)carbamoyl)amide]: in test [1], the half-maximal inhibitory concentration (IC50) lay within 100 to 1000 nM. In addition, in test [2], the half-maximal effective concentration (EC50) was less than 100 nM.
The corresponding values for `Cc1n[nH]c(C)c1-c1ccc(C[n+]2cc([N-]C(=O)Nc3cccc(C(F)(F)F)c3)on2)nc1` [Example 151, (3-((5-(3,5-dimethyl-1H-pyrazol-4-yl)pyridin-2-yl)methyl)-1,2,3-oxadiazol-3-ium-5-yl)((3-(trifluoromethyl)phenyl)carbamoyl)amide] are 100 to 1000 nM and 100 to 1000 nM.
For `Cc1noc(C)c1-c1ccc(C[n+]2cc([N-]C(=O)Nc3ccnc(C(F)(F)F)c3)on2)nc1` [Example 152, (3-((5-(3,5-dimethylisoxazol-4-yl)pyridin-2-yl)methyl)-1,2,3-oxadiazol-3-ium-5-yl)((2-(trifluoromethyl)pyridin-4-yl)carbamoyl)amide], in test [1] (setting [3]), the IC50 is less than 100 nM. Further, the concentration for a half-maximal effect (EC50) in test [2] was less than 100 nM.
Compound `Cc1noc(C)c1-c1ccc(C[n+]2cc([N-]C(=O)Nc3cc(F)cc(C(F)(F)F)c3)on2)nc1` [Example 153, (3-((5-(3,5-dimethylisoxazol-4-yl)pyridin-2-yl)methyl)-1,2,3-oxadiazol-3-ium-5-yl)((3-fluoro-5-(trifluoromethyl)phenyl)carbamoyl)amide] displayed a 50% inhibitory concentration (IC50) in test [1] of 100 to 1000 nM. In test [2], the EC50 was less than 100 nM.
The corresponding values for `Cc1noc(C)c1-c1ccc(C[n+]2cc([N-]C(=O)Nc3cnc(C(F)(F)F)s3)on2)nc1` [Example 154, (3-((5-(3,5-dimethylisoxazol-4-yl)pyridin-2-yl)methyl)-1,2,3-oxadiazol-3-ium-5-yl)((2-(trifluoromethyl)thiazol-5-yl)carbamoyl)amide] are 100 to 1000 nM and 100 to 1000 nM.
On the same counts, the results for `O=C([N-]c1c[n+](Cc2ccc(-c3cncnc3C3CC3)cn2)no1)Nc1cccc(C(F)(F)F)c1` [Example 155, (3-((5-(4-cyclopropylpyrimidin-5-yl)pyridin-2-yl)methyl)-1,2,3-oxadiazol-3-ium-5-yl)((3-(trifluoromethyl)phenyl)carbamoyl)amide] are 100 to 1000 nM and 100 to 1000 nM.
On the same counts, the results for `Cc1cc(NC(=O)[N-]c2c[n+](Cc3ccc(-c4c(C)noc4C)cn3)no2)cc(C(F)(F)F)c1` [Example 156, (3-((5-(3,5-dimethylisoxazol-4-yl)pyridin-2-yl)methyl)-1,2,3-oxadiazol-3-ium-5-yl)((3-methyl-5-(trifluoromethyl)phenyl)carbamoyl)amide] are 1000 to 20000 nM and 100 to 1000 nM.
Regarding `Cc1noc(C)c1-c1ccc(C[n+]2cc([N-]C(=O)Nc3ccc(Cl)c(C(F)(F)F)c3)on2)nc1` [Example 157, ((4-chloro-3-(trifluoromethyl)phenyl)carbamoyl)(3-((5-(3,5-dimethylisoxazol-4-yl)pyridin-2-yl)methyl)-1,2,3-oxadiazol-3-ium-5-yl)amide], the IC50 in test [1] fell in the range of 1000 to 20000 nM. The EC50 in test [2] was in the range of 100 to 1000 nM.
On the same counts, the results for `Cc1ccc(NC(=O)[N-]c2c[n+](Cc3ccc(-c4c(C)noc4C)cn3)no2)cc1C(F)(F)F` [Example 158, (3-((5-(3,5-dimethylisoxazol-4-yl)pyridin-2-yl)methyl)-1,2,3-oxadiazol-3-ium-5-yl)((4-methyl-3-(trifluoromethyl)phenyl)carbamoyl)amide] are 100 to 1000 nM and less than 100 nM.
The corresponding values for `COc1nccc(C)c1-c1ccc(C[n+]2cc([N-]C(=O)Nc3cccc(C(F)(F)F)c3)on2)nc1` [Example 159, (3-((2′-methoxy-4′-methyl-[3,3′-bipyridin]-6-yl)methyl)-1,2,3-oxadiazol-3-ium-5-yl)((3-(trifluoromethyl)phenyl)carbamoyl)amide] are 100 to 1000 nM and less than 100 nM.
On to `O=C([N-]c1c[n+](Cc2ccc(-c3ccnnc3)cn2)no1)Nc1cccc(C(F)(F)F)c1` [Example 160, (3-((5-(pyridazin-4-yl)pyridin-2-yl)methyl)-1,2,3-oxadiazol-3-ium-5-yl)((3-(trifluoromethyl)phenyl)carbamoyl)amide], for which, in test [1] (setting [3]), the IC50 was less than 100 nM. In test [2], the EC50 is 100 to 1000 nM.
Compound `Cc1noc(C)c1-c1ccc(C[n+]2cc([N-]C(=O)Nc3cccc(C(F)(F)F)n3)on2)nc1` [Example 161, (3-((5-(3,5-dimethylisoxazol-4-yl)pyridin-2-yl)methyl)-1,2,3-oxadiazol-3-ium-5-yl)((6-(trifluoromethyl)pyridin-2-yl)carbamoyl)amide] returned an IC50 in test [1] of 1000 to 20000 nM. In addition, the EC50 in test [2] was 1000 to 20000 nM.
For `Cc1ccnnc1-c1ccc(C[n+]2cc([N-]C(=O)Nc3cccc(C(F)(F)F)c3)on2)nc1` [Example 162, (3-((5-(4-methylpyridazin-3-yl)pyridin-2-yl)methyl)-1,2,3-oxadiazol-3-ium-5-yl)((3-(trifluoromethyl)phenyl)carbamoyl)amide], the IC50 in test [1] (setting [3]) was less than 100 nM. Also, the EC50 in test [2] was less than 100 nM.
`Cc1cnccc1-c1ccc(C[n+]2cc([N-]C(=O)Nc3cccc(C(F)(F)F)c3)on2)nc1` [Example 163, (3-((3′-methyl-[3,4′-bipyridin]-6-yl)methyl)-1,2,3-oxadiazol-3-ium-5-yl)((3-(trifluoromethyl)phenyl)carbamoyl)amide] came in with an IC50 in test [1] of 100 to 1000 nM. Further, the concentration for a half-maximal effect (EC50) in test [2] was less than 100 nM.
The corresponding values for `O=C([N-]c1c[n+](Cc2ccc(-c3ccncc3F)cn2)no1)Nc1cccc(C(F)(F)F)c1` [Example 164, (3-((3′-fluoro-[3,4′-bipyridin]-6-yl)methyl)-1,2,3-oxadiazol-3-ium-5-yl)((3-(trifluoromethyl)phenyl)carbamoyl)amide] are 100 to 1000 nM and less than 100 nM.
The corresponding values for `Cc1cnn(C)c1-c1ccc(C[n+]2cc([N-]C(=O)Nc3cccc(C(F)(F)F)c3)on2)nc1` [Example 165, (3-((5-(1,4-dimethyl-1H-pyrazol-5-yl)pyridin-2-yl)methyl)-1,2,3-oxadiazol-3-ium-5-yl)((3-(trifluoromethyl)phenyl)carbamoyl)amide] are 100 to 1000 nM and less than 100 nM.
As to `Cc1noc(C)c1-c1ccc(C[n+]2cc([N-]C(=O)Nc3ncc(C(F)(F)F)s3)on2)nc1` [Example 166, (3-((5-(3,5-dimethylisoxazol-4-yl)pyridin-2-yl)methyl)-1,2,3-oxadiazol-3-ium-5-yl)((5-(trifluoromethyl)thiazol-2-yl)carbamoyl)amide], the half-maximal inhibitory concentration (IC50) in test [1] was in the range of 100 to 1000 nM. Moreover, the concentration giving a half-maximal response (EC50) in test [2] is less than 100 nM.

The term IC50 denotes the concentration at which inhibition is half-maximal. Broadly, the EC50 is the concentration at which the effect is half-maximal.
